± gives the standard deviation of the averaged measurements.
Columns and labels:
Experiment in all cases: level (log10 ratio to DMSO vehicle control); higher = higher biomarker level / cell amount than vehicle control
Conditions in all cases: in DMSO
[1] = compound: CC(C)(C)C(=O)CC(=O)C(F)(F)C(F)(F)C(F)(F)F [(Heptafluorobutanoyl)pivaloylmethane]
Protocol: (§1)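 BioMAP Diversity Plus panel of 12 human primary cell co-culture systems (3C, 4H, LPS, SAg, BT, BF4T, BE3C, CASM3C, HDF3CGF, KF3CT, MyoF, Mphg). Compounds were added 1 h before stimulation and left for 24 h (MyoF 48 h; BT 72 h for soluble read-outs or 6 d for IgG). Biomarkers were read by ELISA, cytotoxicity by SRB, PBMC viability and proliferation by Alamar Blue. Each well value was divided by the mean of 8 DMSO control wells on the same plate and log10 transformed; duplicate blinded samples were tested at 4 concentrations.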

[2] = compound: CCCCCCCCC(F)(F)C(F)(F)C(F)(F)C(F)(F)C(F)(F)C(F)(F)F [1-(Perfluorohexyl)octane]
Protocol: as §1

[3] = compound: FC(F)(F)C(F)(F)C(F)(F)C(F)(F)C(F)(F)C(F)(F)C(F)(F)CCI [1-Iodo-1H,1H,2H,2H-perfluorononane]
Protocol: as §1

[4] = compound: N=C(N)C(F)(F)C(F)(F)C(F)(F)C(F)(F)C(F)(F)C(F)(F)C(F)(F)F [Perfluorooctanamidine]
Protocol: as §1

[5] = compound: NC(=O)C(F)(F)C(F)(F)C(F)(F)C(F)(F)C(F)(F)C(F)(F)C(F)(F)F [Perfluorooctanamide]
Protocol: as §1

[6] = compound: O=C(O)C(F)(F)C(F)(F)C(F)(F)C(=O)O [Hexafluoroglutaric acid]
Protocol: as §1

[7] = compound: O=S(=O)(O)C(F)(F)C(F)(F)C(F)(F)C(F)(F)C(F)(F)C(F)(F)C(F)(F)C(F)(F)F [Perfluorooctanesulfonic acid]
Protocol: as §1

Test System | level (log10) ([1]; 6700 nM) | level (log10) ([1]; 20000 nM) | level (log10) ([1]; 60000 nM) | level (log10) ([2]; 6700 nM) | level (log10) ([2]; 20000 nM) | level (log10) ([3]; 6700 nM) | level (log10) ([3]; 20000 nM) | level (log10) ([4]; 6700 nM) | level (log10) ([4]; 20000 nM) | level (log10) ([4]; 60000 nM) | level (log10) ([5]; 6700 nM) | level (log10) ([5]; 20000 nM) | level (log10) ([5]; 60000 nM) | level (log10) ([6]; 6700 nM) | level (log10) ([6]; 20000 nM) | level (log10) ([6]; 60000 nM) | level (log10) ([7]; 6700 nM) | level (log10) ([7]; 20000 nM) | level (log10) ([7]; 60000 nM)
lMphg:IL-1alpha | 0.0265 ± 0.042 | 0.0005 ± 0.0021 | 0.0175 ± 0.013 | -0.0215 ± 0.013 | 0.0085 ± 0.074 | -0.012 ± 0.014 | 0.055 ± 0.045 | -0.011 ± 0.024 | -0.004 ± 0.044 | 0.027 | 0.01 ± 0.034 | 0.0265 ± 0.054 | 0.04 ± 0.058 | -0.004 ± 0.0057 | -0.0095 ± 0.023 | -0.022 ± 0.031 | 0.0015 ± 0.022 | 0.0075 ± 0.013 | 0.017 ± 0.0085
lMphg:M-CSF | -0.0265 ± 0.039 | -0.027 ± 0.051 | -0.0315 ± 0.032 | -0.0235 ± 0.021 | -0.0205 ± 0.036 | -0.023 ± 0.037 | -0.015 ± 0.0014 | -0.0155 ± 0.016 | -0.0015 ± 0.0021 | -0.001 | 0.0175 ± 0.011 | -0.0055 ± 0.042 | 0.0085 ± 0.059 | -0.028 ± 0.014 | -0.017 ± 0.0042 | -0.0175 ± 0.019 | -0.003 ± 0.013 | -0.008 ± 0.0085 | 0.03 ± 0.0042
lMphg:SRB | -0.001 ± 0.0057 | -0.006 ± 0.0028 | 0.008 ± 0.016 | 0.002 ± 0.0042 | 0 ± 0.0085 | -0.002 ± 0.0071 | 0.0065 ± 0.005 | -0.006 ± 0.016 | 0.004 ± 0.016 | 0.001 | -0.0015 ± 0.016 | -0.0145 ± 0.0021 | -0.0075 ± 0.011 | 0.0035 ± 0.00071 | 0.003 ± 0.0085 | -0.0045 ± 0.0035 | -0.002 ± 0.014 | -0.004 ± 0.018 | 0.009 ± 0.02
lMphg:SRB-Mphg | -0.0025 ± 0.0078 | -0.0125 ± 0.012 | 0.0035 ± 0.019 | -0.007 ± 0.013 | 0.0305 ± 0.019 | 0.001 ± 0.03 | 0.001 ± 0.011 | 0.0145 ± 0.011 | 0.009 ± 0.014 | 0.007 | -0.0145 ± 0.021 | -0.01 ± 0.0071 | -0.016 ± 0.0057 | -0.0075 ± 0.019 | -0.0055 ± 0.005 | 0.0075 ± 0.022 | -0.0005 ± 0.021 | 0.007 ± 0.0071 | 0.0055 ± 0.0035
lMphg:sIL-10 | 0.024 ± 0.0099 | -0.0365 ± 0.061 | 0.0125 ± 0.032 | -0.0375 ± 0.056 | -0.036 ± 0.054 | -0.0685 ± 0.00071 | -0.072 ± 0.021 | -0.051 ± 0.018 | -0.118 ± 0.0057 | -0.121 | -0.029 ± 0.0028 | 0.013 ± 0.042 | 0.008 ± 0.058 | -0.0745 ± 0.037 | -0.0775 ± 0.056 | -0.102 ± 0.0078 | -0.033 ± 0.076 | -0.0295 ± 0.012 | -0.727 ± 0.099
